From the supplement of paper PMC13380429

Experiments:
Details in all cases: 72 h
HepG2 [1] = test: cell viability relative to DMSO; higher = less toxic
Vero E6 [2] = test: as above
Caco-2 [3] = test: as above
U2OS [4] = test: as above
HepG2 [5] = test: drug sensitivity score (DSS) for viability; higher = more toxic; extreme values may be limits of the assay
Vero E6 [6] = test: as above
Caco-2 [7] = test: as above
U2OS [8] = test: as above
HepG2 [9] = test: relative viability EC50 (midpoint between 100% and the lowest measured viability); higher = less toxic
U2OS [10] = test: as above
Vero E6 [11] = test: as above
Caco-2 [12] = test: as above
Calu-3 [13] = test: cell viability relative to DMSO; higher = less toxic
Calu-3 [14] = test: drug sensitivity score (DSS) for viability; higher = more toxic; extreme values may be limits of the assay
Calu-3 [15] = test: relative viability EC50 (midpoint between 100% and the lowest measured viability); higher = less toxic

| SMILES | cell viability (HepG2 [1]; 1 nM) | cell viability (HepG2 [1]; 10 nM) | cell viability (HepG2 [1]; 100 nM) | cell viability (HepG2 [1]; 1000 nM) | cell viability (HepG2 [1]; 10000 nM) | cell viability (Vero E6 [2]; 1 nM) | cell viability (Vero E6 [2]; 10 nM) | cell viability (Vero E6 [2]; 100 nM) | cell viability (Vero E6 [2]; 1000 nM) | cell viability (Vero E6 [2]; 10000 nM) | cell viability (Caco-2 [3]; 1 nM) | cell viability (Caco-2 [3]; 10 nM) | cell viability (Caco-2 [3]; 100 nM) | cell viability (Caco-2 [3]; 1000 nM) | cell viability (Caco-2 [3]; 10000 nM) | cell viability (U2OS [4]; 1 nM) | cell viability (U2OS [4]; 10 nM) | cell viability (U2OS [4]; 100 nM) | cell viability (U2OS [4]; 1000 nM) | cell viability (U2OS [4]; 10000 nM) | drug sensitivity score (HepG2 [5]) | drug sensitivity score (Vero E6 [6]) | drug sensitivity score (Caco-2 [7]) | drug sensitivity score (U2OS [8]) | relative viability EC50 (HepG2 [9]) | relative viability EC50 (U2OS [10]) | relative viability EC50 (Vero E6 [11]) | relative viability EC50 (Caco-2 [12]) | cell viability (Calu-3 [13]; 1 nM) | cell viability (Calu-3 [13]; 10 nM) | cell viability (Calu-3 [13]; 100 nM) | cell viability (Calu-3 [13]; 1000 nM) | cell viability (Calu-3 [13]; 10000 nM) | drug sensitivity score (Calu-3 [14]) | relative viability EC50 (Calu-3 [15]) |
| --- | --- | --- | --- | --- | --- | --- | --- | --- | --- | --- | --- | --- | --- | --- | --- | --- | --- | --- | --- | --- | --- | --- | --- | --- | --- | --- | --- | --- | --- | --- | --- | --- | --- | --- | --- |
| COC(=O)N[C@@H](C)CNc1nccc(-c2cn(C(C)C)nc2-c2cc(Cl)cc(NS(C)(=O)=O)c2F)n1 [Encorafenib (LGX818)] | 96.2% | 91.7% | 79.7% | 38.4% | 11.1% | 106% | 106% | 109% | 116% | 71.6% | 103% | 89.5% | 97% | 88.4% | 69.5% | 101% | 104% | 106% | 94.2% | 82% | 14.2 | 0.7 | 2.4 | 1.1 | 0.37 µM | > 10 µM |  |  |  |  |  |  |  |  |  |
| CSc1nc2ccc3nc(NC(=O)C(c4ccccc4)c4ccccc4)sc3c2s1 [Gue-1654] | 96.4% | 106% | 98.3% | 102% | 92.6% | 104% | 107% | 99.6% | 97.8% | 105% | 100% | 100% | 94.7% | 93.6% | 80.5% | 100% | 95.9% | 98.8% | 97.1% | 98.2% | 0 | 0 | 0.7 | 0 | > 10 µM | > 10 µM | > 10 µM | > 10 µM |  |  |  |  |  |  |  |
| CCC(CC)Nc1nc(C)c(-c2ccc(OC(F)(F)F)cc2OC)nc1OC [NGD-98-2] | 102% | 98.8% | 90.8% | 100% | 96.3% | 99.9% | 104% | 100% | 99.1% | 99.2% | 94.8% | 92.9% | 96.3% | 90.9% | 81.6% | 98.7% | 98.5% | 95.1% | 99.3% | 97.7% | 0 | 0 | 0.6 | 0 | > 10 µM | > 10 µM | > 10 µM | > 10 µM |  |  |  |  |  |  |  |
| Cc1ccc(-c2nn(C(C)(C)CNC(=O)c3ncccc3C)c3ncnc(N)c23)cc1 [WEHI-345-analog] | 109% | 97.5% | 99.7% | 94.6% | 34.2% | 100% | 97.7% | 99.8% | 95.7% | 37.2% | 96.3% | 100% | 95.5% | 101% | 58.9% | 98.3% | 108% | 94.3% | 104% | 38.4% | 4.5 | 4.1 | 2 | 3 | 2.49 µM | 3.51 µM | 2.62 µM |  | 99.6% | 110% | 86% | 97.8% | 52.2% | 2.8 |  |
| COc1cc(Nc2ncc3c(n2)-c2ccc(Cl)cc2C(c2c(F)cccc2OC)=NC3)ccc1C(=O)O [alisertib] | 102% | 98% | 58.7% | 66.6% | 61.4% | 96.3% | 103% | 84.4% | 82.7% | 67% | 102% | 90% | 83% | 87.9% | 72.8% | 102% | 99.7% | 81.5% | 78.2% | 58.6% | 13.1 | 4.1 | 3.5 | 5.7 |  |  |  |  | 106% | 105% | 98.1% | 88.4% | 78.8% | 1.6 | > 10 µM |
| CCOC(=O)OC(C)OC1=C(C(=O)Nc2ccccn2)N(C)S(=O)(=O)c2ccccc21 (stereo not drawn) [ampiroxicam] | 91.9% | 102% | 101% | 101% | 103% |  |  |  |  |  | 94.6% | 99.9% | 86.5% | 96.9% | 97.3% | 97.2% | 102% | 93.9% | 98% | 95% | 0 |  | 0 | 0 | > 10 µM | > 10 µM |  | > 10 µM |  |  |  |  |  |  |  |
| O=C1[O][SbH]23[O]C(=O)C([O]2)C2[O][SbH]4([O]C(=O)C([O]4)C1[O]3)[O]C2=O [antimonyl] | 96.3% | 105% | 101% | 95.7% | 48% | 98.7% | 103% | 106% | 107% | 102% | 106% | 94.7% | 99.2% | 84.7% | 71.5% | 95.6% | 97.1% | 97.6% | 96.5% | 84.8% | 3.4 | 0 | 2.8 | 0.5 | 2.48 µM | > 10 µM | > 10 µM |  |  |  |  |  |  |  |  |
| CNC(=O)[C@H](Cc1ccccc1)NC(=O)[C@H](CC(C)C)[C@H](CSc1cccs1)C(=O)NO [batimastat] | 98.2% | 95.6% | 99% | 90.9% | 93.6% | 93.4% | 97.7% | 92.3% | 84.4% | 83.8% | 94.1% | 105% | 92.8% | 94.2% | 85% | 94.3% | 105% | 97% | 98.4% | 90.1% | 0 | 1.4 | 0.3 | 0 | > 10 µM | > 10 µM | > 10 µM | > 10 µM | 92.9% | 96.2% | 89.4% | 82.9% | 65.5% | 3.8 |  |
